In the OPERA property sets (Mansouri et al. 2018):

conditions: not given

Row | SMILES | boiling point [°C] | log10 vapour pressure (mmHg) | melting point [°C] | ready biodegradability | log10 Henry constant (atm·m³/mol) | log10 Koc (L/kg) | log10 Koa
1 | CCCCCCCCCC1CCCCC1 | 282 | -2.61 | -10 | – | – | – | –
2 | Cc1cc(Cl)n(C)n1 | 158 | – | – | – | – | – | –
3 | C[N+]12CCC(CC1)C(OC(=O)C(O)(c1ccccc1)c1ccccc1)C2.[Br-] (centres undefined) | – | – | 240 | – | – | – | –
4 | COc1ccc([C@@H]2Sc3ccccc3N(CCN(C)C)C(=O)[C@@H]2OC(C)=O)cc1 | – | – | 210 | – | – | – | –
5 | O=S(=O)(Cl)c1cccs1 | – | – | 28 | – | – | – | –
6 | c1ccc(P(c2ccccc2)c2ccccc2)cc1 | – | – | 80 | – | – | – | –
7 | C=CCOC1=NS(=O)(=O)c2ccccc21 | – | – | 138 | not readily biodegradable | – | – | –
8 | CCCN1CCCCC1 | 152 | – | – | – | – | – | –
9 | ClCC(Cl)(Cl)Cl | 130 | 1.08 | -70.2 | – | -2.6 | – | –
10 | CC(C)(C)c1ccc(O)cc1 | – | – | – | not readily biodegradable | – | – | –
11 | Cc1cc(C)c([N+](=O)[O-])cc1C | 265 | – | 71 | – | – | – | –
12 | C=Cc1ccc(Br)cc1 | 212 | -0.108 | 7.7 | – | – | – | –
13 | Nc1nc(N)c2[nH]cnc2n1 | – | – | 302 | – | – | – | –
14 | ClCC1CO1 (centres undefined) | 117 | 1.22 | -41.6 | not readily biodegradable | – | 1 | –
15 | CCC(C)C(C)C(C)(C)C (centres undefined) | 157 | – | – | – | – | – | –
16 | C=C1CCCC1 | 75.5 | – | – | – | – | – | –
17 | C[C@@H](O)C1CC1 | 124 | – | -32.1 | – | – | – | –
18 | c1ccc(N=C(Nc2ccccc2)Nc2ccccc2)cc1 | – | – | 146 | – | – | – | –
19 | Cc1cnc(C(=O)O)c[n+]1[O-] | – | – | 178 | – | – | – | –
20 | CCCc1ccc(C(=O)O)cc1 | – | – | 143 | – | – | – | –

Row | SMILES | boiling point [°C] | log10 vapour pressure (mmHg) | melting point [°C] | ready biodegradability | log10 Henry constant (atm·m³/mol) | log10 Koc (L/kg) | log10 Koa
21 | O=C(O)c1ccnc2ccccc12 | – | – | 254 | – | – | – | –
22 | O=C1c2ccccc2C(=O)C1c1ccc(Cl)cc1 | – | – | 146 | – | – | – | –
23 | C=CC(C)C(C)O (centres undefined) | 126 | – | – | – | – | – | –
24 | Oc1cc(Cl)c(Cl)c(Cl)c1 | 275 | – | 101 | – | – | 3.56 | –
25 | CNCCN | 115 | – | – | – | – | – | –
26 | FC(F)(F)C(F)(F)N(C(F)(F)C(F)(F)F)C(F)(F)C(F)(F)F | 70.3 | – | -110 | – | – | – | –
27 | CC[N+](C)(C)CCOC(=O)CCC(=O)OCC[N+](C)(C)CC.[Br-].[Br-] | – | – | 158 | – | – | – | –
28 | Oc1c(Cl)cccc1Cl | 220 | -1.48 | 68.5 | not readily biodegradable | – | – | –
29 | O=Cc1cccc([N+](=O)[O-])c1 | – | -2.14 | 58.5 | – | – | – | –
30 | CCN1CCCC1CNC(=O)c1cc(S(=O)(=O)CC)ccc1OC (centres undefined) | – | – | 182 | – | – | – | –
31 | CCOC(=O)CC(=O)C(F)(F)F | 133 | – | – | – | – | – | –
32 | CCCCCC(=O)O | 205 | -1.36 | -3 | readily biodegradable | -6.12 | 1.46 | –
33 | CC(=O)Nc1ccc(CC(=O)O)cc1 | – | – | 173 | – | – | – | –
34 | NS(=O)(=O)c1ccc(N2CCCCS2(=O)=O)cc1 | – | – | 181 | – | – | – | –
35 | Oc1cc(O)cc(O)c1 | – | – | 218 | readily biodegradable | – | – | –
36 | CCCOc1ccccc1OCC(O)CO (centres undefined) | – | – | 70 | – | – | – | –
37 | CO/N=C(/C(=O)OC)c1ccccc1COc1ccccc1C | – | -7.76 | 99 | – | – | – | –
38 | CC(C)(C)OOC(C)(C)c1ccc(C(C)(C)OOC(C)(C)C)cc1 | – | – | – | not readily biodegradable | – | – | –
39 | CCO[Si](CCC#N)(OCC)OCC | 224 | – | – | – | – | – | –
40 | CC(=O)c1cccc(C)c1 | 220 | – | – | – | – | – | –

Row | SMILES | boiling point [°C] | log10 vapour pressure (mmHg) | melting point [°C] | ready biodegradability | log10 Henry constant (atm·m³/mol) | log10 Koc (L/kg) | log10 Koa
41 | O=C1NC(=O)C2(CCc3ccccc3C2)N1 (centres undefined) | – | – | 268 | – | – | – | –
42 | CCOC(=O)C1OC1(C)c1ccccc1 (centres undefined) | 274 | – | – | – | – | – | –
43 | O=C(O)c1cc2ccccc2[nH]1 | – | – | 206 | – | – | – | –
44 | CCCC(=O)[O-].[Na+] | – | – | 251 | – | – | – | –
45 | N#CC1CCC1 | 150 | – | – | – | – | – | –
46 | CCCC(CC)(CC)CC | 166 | – | – | – | – | – | –
47 | CC(=O)O.CCCCCCCCCCCCCCCCCC1=NCCN1 | – | – | 65 | – | – | – | –
48 | CCCCCC(C)(C)CC | 161 | – | – | – | – | – | –
49 | CCCCOCCCC | 141 | 0.779 | – | not readily biodegradable | -2.22 | – | 3.89
50 | CCC1(C2=C[C@H]3CC[C@@H](C2)C3)C(=O)NC(=O)NC1=O | – | – | 213 | – | – | – | –
51 | Oc1ccc(Br)cc1 | – | – | – | not readily biodegradable | – | 2.41 | –
52 | O=c1[nH]cc(Br)c(=O)[nH]1 | – | – | 310 | – | – | – | –
53 | CCOC(=O)c1c(N)sc2c1CCN(Cc1ccccc1)C2 | – | – | 112 | – | – | – | –
54 | N=C(N)c1ccc(C=Cc2ccc(C(=N)N)cc2O)cc1 | – | – | 235 | – | – | – | –
55 | C#CCNC | 83 | – | – | – | – | – | –
56 | CC(Cl)CCCCl (centres undefined) | 162 | – | – | – | – | – | –
57 | ICC(CI)(CI)CI | – | – | 225 | – | – | – | –
58 | CCCCOC(=O)COc1cc(Cl)c(Cl)cc1Cl | – | -4.82 | 28.5 | – | – | – | –

same assay, conditions: fish

Row | SMILES | log10 BCF | log10 biotransformation half-life (days)
59 | OCCN(CCO)CCO | 0.59 | –
60 | CCOP(=S)(OCC)Oc1cc(-c2ccccc2)on1 | 2.61 | 1.05
61 | CCCCC(CC)COC(=O)CC(C(=O)OCC(CC)CCCC)S(=O)(=O)O (centres undefined) | 0.97 | –
62 | Oc1c(Cl)c(Cl)cc(Cl)c1Cl | 2.15 | -0.1
63 | CC(C)(C)c1ccc(O)cc1 | 1.83 | -0.87
64 | Oc1c(Cl)cccc1Cl | 1.08 | –
65 | CCCCOCCCC | 1.86 | -0.25
66 | Oc1ccc(Br)cc1 | 1.17 | –
